From US8957049B2, “Inhibitors of fatty acid amide hydrolase” (Infinity Pharmaceuticals, Inc., priority 2008, dated 2015) come the findings set out here.

The structures appear in SMILES notation. A value given as a limit tells only on which side of the number the result lay.

This assay has as its target T1, human FAAH (Homo sapiens, UniProt O00519).
T1 construct: host or cells: COS-7 cells, transient transfection (FuGENE 6); 13,000 g membrane fraction solubilised in 1% Triton X-100
T1 sequence (O00519 1-579): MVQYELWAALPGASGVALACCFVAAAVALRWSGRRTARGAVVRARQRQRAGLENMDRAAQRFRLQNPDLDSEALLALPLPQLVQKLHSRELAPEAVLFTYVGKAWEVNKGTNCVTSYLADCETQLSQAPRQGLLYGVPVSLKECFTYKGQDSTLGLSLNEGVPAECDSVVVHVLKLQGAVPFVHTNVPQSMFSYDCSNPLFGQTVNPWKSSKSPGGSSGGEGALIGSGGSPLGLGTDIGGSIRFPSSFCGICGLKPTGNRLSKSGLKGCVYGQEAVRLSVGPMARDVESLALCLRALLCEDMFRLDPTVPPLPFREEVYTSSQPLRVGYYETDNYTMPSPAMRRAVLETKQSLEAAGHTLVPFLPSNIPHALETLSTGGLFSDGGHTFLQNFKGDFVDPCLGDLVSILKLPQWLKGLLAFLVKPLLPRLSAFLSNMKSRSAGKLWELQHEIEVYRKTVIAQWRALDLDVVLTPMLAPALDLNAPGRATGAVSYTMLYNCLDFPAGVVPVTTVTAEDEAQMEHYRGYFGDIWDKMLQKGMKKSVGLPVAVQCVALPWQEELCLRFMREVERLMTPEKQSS
Briefly: Human FAAH biochemical inhibition assay (AMC arachidonoyl amide fluorescence). Conditions: class given in each Example, read-out: Activity (Ki, inhibition of human FAAH). The protocol:
Exemplary compounds are set forth in the Examples provided below. Compounds were assayed as inhibitors of human FAAH using the method described in detail in Example 286.
The following assays may be used to determine the inhibition of FAAH by the compounds of the present invention: (1) a fluorescence-based assay for fatty acid amide hydrolase compatible with high-throughput screening as described in Manjunath et al., Analytical Biochemistry (2005) 343:143-151; and (2) a high-throughput screening for the discovery of inhibitors of fatty acid amide hydrolase using a microsome-based fluorescent assay. Wang et al., Biomolecular Screening (2006) 1-9.
COS-7 cells were split the day before, 1:5 into 150 mm×25 mm cell culture dishes (Corning Inc., Cat. No. 430599). Transient transfection took place at 30-40% confluency according to FuGENE 6 Transfection Reagent (Roche, Cat. No. 11814 443 001).
The FuGENE transfection 6 reagent (45 uL) was added to 1410 μL of media (DMEM, serum free without pen/strep) in a 15 mL conical tube and incubated at room temp for 5 minutes, followed by the addition of FAAH plasmid DNA (15 μg) (OriGene Cat. No. TC119221, Genbank Accession No. NM_001441.1, 0.67 ug/uL) and a further incubation of 15 minutes at room temperature. The resulting solution was added into one dish of 30-40% confluent COS-7 cells in a drop-wise manner. The COS-7 cell dish was subsequently incubated for 48 hours. The cells are then harvested.
Media was aspirated from the dishes and the cells rinsed with 10 mL PBS. The PBS was removed and 3 mL of PBS added to the dish. The dish was scraped to resuspend the cells, and the subsequent cell suspension collected into a 15 mL conical tube. The cells were pelleted by centrifugation at 1200 rpm for 5 minutes in a bench top centrifuge. PBS was removed and the cell pellet snap frozen in liquid nitrogen and stored at −80° C.
COS-7 Cells—FAAH Purification: • (1) Fractionation: Frozen cell pellets from transient transfections were thawed on ice and resuspended in 12.5 mM Hepes pH 8.0, 100 mM NaCl, 1 mM EDTA (10 mL/0.2 g cell pellet). The pellets were dounce homogenized and then sonicated to produce cell extract. The cell extract was subsequently centrifuged at 1000 g to remove cellular debris. The pellet was discarded and the supernatant centrifuged at 13,000 g for 20 minutes. The pellet contained membrane bound FAAH. The supernatant was discarded and the pellet resolubilized. • (2) Re-solubilization: The fraction of interest, (13,000 g, membrane fraction) was re-suspended in 2.3 mL re-suspension buffer (20 mM Hepes pH 7.8, 10% v/v Glycerol, 1 mM EDTA, 1% Triton X-100) and the sample incubated on ice for 1 hour and then centrifuged to remove any particulate matter. The supernatant containing solubilized human FAAH was aliquoted and snap frozen in liquid nitrogen and stored at −80° C. until use. • (3) Characterization: Protein Concentration determined by Bradford assay. • SDS gel and Western blot to confirm presence of FAAH • FAAH activity assay • Km determination—96-well assay • Linear dependence—96-well assay • Standard compound Ki determination—384-well assay
Rat FAAH biochemical assays were carried out in a 96 well flat bottom black non-treated polystyrene plates (Corning Costar Catalogue #3915). FAAH reaction buffer: 50 mM Hepes (pH 7.5), 1 mM EDTA, 0.2% Triton X-100. FAAH substrate—AMC Arachidonoyl Amide (Cayman Chemicals Company, Catalog #10005098). The reaction was read in an Envision microtiter plate reader [Excitation filter 355 nm (40 nm bandpass); Emmision filter 460 nm (25 nm bandpass)]. The raw fluorescence was plotted on the y axis and the inhibitor concentration on the x axis to give a dose response inhibition curve. The data was fitted to a single site competitive inhibition equation, fixing the Km for the rat and human enzyme to 12 μM and 9 μM respectively. […]

Regarding `OB(O)c1ccc(-c2nnc(Cc3ccccc3)o2)s1` [Compound 55], the Ki fell in the range of 0.01 to 0.1 µM.
Next, `OB(O)c1ccc(-c2nnc(-c3ccccc3)o2)s1` [Compound 56]: 0.01 to 0.1 µM.
The same measure for `OB(O)c1ccc(-c2nnc(CCc3ccccc3)o2)cc1` [Compound 57]: ≤ 0.01 µM.
With `OB(O)c1csc(-c2nnc(CCc3ccccc3)o2)c1` [Compound 58], the inhibition constant (Ki) is ≤ 0.01 µM.
The same measure for `OB(O)c1ccc(-c2nnc(Cc3ccsc3)o2)cc1` [Compound 59]: ≤ 0.01 µM; for `CCCCCc1nnc(-c2coc(B(O)O)c2)o1` [Compound 60]: 0.01 to 0.1 µM; for `OB(O)c1csc(-c2nnc(Cc3ccccc3)o2)c1` [Compound 60]: ≤ 0.01 µM.
The same measure for `OB(O)c1csc(-c2nnc(-c3ccccc3)o2)c1` [Compound 61]: 0.01 to 0.1 µM; for `OB(O)c1ccc(-c2nnc(-c3ccccc3)s2)cc1` [Compound 62]: ≤ 0.01 µM; for `OB(O)c1cccc(-c2nnc(-c3ccccc3)o2)c1` [Compound 63]: 0.1 to 1 µM.
With `OB(O)c1ccc(Cc2nnc(-c3ccccc3)o2)cc1` [Compound 64], the Ki lay in the range of 0.01 to 0.1 µM.
Next, `OB(O)c1ccc(-c2nnc(-c3ccccn3)o2)cc1` [Compound 65]: 0.01 to 0.1 µM; `COc1cccc(-c2nnc(-c3ccc(B(O)O)cc3)o2)c1` [Compound 66]: ≤ 0.01 µM.
Next, `OB(O)c1ccc(-c2nnc(-c3ccccc3)o2)c(F)c1` [Compound 67]: 0.01 to 0.1 µM; `OB(O)c1ccc(-c2nnc(-c3ccccc3)o2)c(Cl)c1` [Compound 68]: ≤ 0.01 µM.
Next, `OB(O)c1ccc(-c2nnc(Cc3ccccc3)o2)cc1F` [Compound 69]: 0.01 to 0.1 µM; `OB(O)c1ccc(-c2nnc(Cc3ccccc3)o2)cc1` [Compound 70]: ≤ 0.01 µM; `OB(O)c1ccc(-c2nnc(-c3ccccc3)o2)cc1` [Compound 71]: ≤ 0.01 µM.
Turning to `CCCc1nnc(-c2ccsc2B(O)O)o1` [Compound 72], the Ki is > 1 µM.
The same measure for `CC(C)(O)c1nnc(-c2ccc(B(O)O)cc2)o1` [Compound 73]: 0.01 to 0.1 µM.
Next, `CCOCc1nnc(-c2ccc(B(O)O)cc2)o1` [Compound 74]: 0.01 to 0.1 µM; `COCc1nnc(-c2ccc(B(O)O)cc2)o1` [Compound 75]: ≤ 0.01 µM.
The same measure for `CCCc1nnc(-c2ccc(B(O)O)c(-c3nnc(CCC)o3)c2)o1` [Compound 76]: ≤ 0.01 µM; for `CC(C)(C)c1nnc(-c2ccc(B(O)O)cc2)o1` [Compound 77]: ≤ 0.01 µM.
With `C=CCCCc1nnc(-c2ccc(B(O)O)cc2)o1` [Compound 78], the Ki was ≤ 0.01 µM.
The same measure for `OB(O)c1ccc(-c2nnc(-c3ccccc3)o2)cc1F` [Compound 79]: 0.01 to 0.1 µM; for `OB(O)c1ccc(-c2nnc(-c3ccccc3)o2)c(C(F)(F)F)c1` [Compound 81]: 0.1 to 1 µM; for `CC(C)(C)OC(=O)NCCc1nnc(-c2ccc(B(O)O)cc2)o1` [Compound 82]: 0.01 to 0.1 µM.
The same measure for `CC(C)(C)OC(=O)NCc1nnc(-c2ccc(B(O)O)cc2)o1` [Compound 83]: 0.01 to 0.1 µM; for `NCCc1nnc(-c2ccc(B(O)O)cc2)o1` [Compound 84]: > 1 µM.
Next, `CC(=O)NCCc1nnc(-c2ccc(B(O)O)cc2)o1` [Compound 85]: 0.1 to 1 µM; `COC(=O)NCCc1nnc(-c2ccc(B(O)O)cc2)o1` [Compound 86]: 0.01 to 0.1 µM; `Cc1nc2cc(B(O)O)ccc2s1` [Compound 88]: 0.1 to 1 µM.
On to `COCCCc1cn(-c2ccccc2)nc1-c1ccc(B(O)O)cc1` [Compound 92], for which the Ki was > 1 µM.
Next, `COCc1cc(OCCc2ccccc2)ccc1B(O)O` [Compound 95]: 0.01 to 0.1 µM; `OCc1cc(OCc2ccccc2)ccc1B(O)O` [Compound 96]: > 1 µM.
The same measure for `OB(O)c1ccc(OCCc2ccccc2)cc1COCc1ccccc1` [Compound 97]: > 1 µM; for `O=Cc1cc(OCCc2ccccc2)ccc1B(O)O` [Compound 98]: ≤ 0.01 µM; for `COC(=O)/C=C/c1cc(OCCc2ccccc2)ccc1B(O)O` [Compound 100]: ≤ 0.01 µM.
The same measure for `COC(=O)/C=C/c1ccsc1B(O)O` [Compound 101]: 0.1 to 1 µM; for `COC(=O)CCc1cc(OCCc2ccccc2)ccc1B(O)O` [Compound 102]: 0.01 to 0.1 µM.
`CN(C)C(=O)/C=C/c1cc(OCCc2ccccc2)ccc1B(O)O` [Compound 103]: the Ki is 0.01 to 0.1 µM.
Regarding `OB1ON=Cc2cc(OCCc3ccccc3)ccc21` [Compound 104], the Ki is 0.01 to 0.1 µM.
Next, `OB1ON=Cc2cc(OCc3ccccc3)ccc21` [Compound 105]: 0.01 to 0.1 µM; `[O-]/[N+](=C\c1cc(OCc2ccccc2)ccc1B(O)O)Cc1ccccc1` [Compound 106]: 0.1 to 1 µM; `OCCN1N=Cc2cc(OCCc3ccccc3)ccc2B1O` [Compound 107]: > 1 µM.
Next, `CN1N=Cc2cc(OCCc3ccccc3)ccc2B1O` [Compound 108]: > 1 µM; `OB1c2ccc(OCc3ccccc3)cc2C=NN1Cc1ccccc1` [Compound 109]: 0.01 to 0.1 µM.
In the case of `CN(Cc1ccccc1)Cc1cc(OCc2ccccc2)ccc1B(O)O` [Compound 110], the Ki fell in the range of 0.1 to 1 µM.
Next, `OB(O)c1ccc(OCc2ccccc2)cc1CNCc1ccccc1` [Compound 111]: 0.1 to 1 µM.
Next, `O=C(/C=C/c1ccccc1B(O)O)NCc1ccccc1` [Compound 112]: 0.1 to 1 µM; `CC(C)(C)OC(=O)Nc1cccc(NC(=O)/C=C/c2ccccc2B(O)O)c1` [Compound 113]: > 1 µM; `CN(Cc1ccccc1)C(=O)/C=C/c1ccccc1B(O)O` [Compound 114]: 0.1 to 1 µM.
Next, `OB(O)c1ccc(OCc2ccccc2)cc1/C=N/OCc1ccccc1` [Compound 115]: 0.01 to 0.1 µM; `O=C(CCc1ccccc1)N/N=C/c1ccccc1B(O)O` [Compound 116]: > 1 µM; `CC(C)(C)OC(=O)NCC(=O)N/N=C/c1cc(OCc2ccccc2)ccc1B(O)O` [Compound 117]: 0.01 to 0.1 µM.
As to `NCC(=O)N/N=C/c1cc(OCc2ccccc2)ccc1B(O)O` [Compound 118], the Ki is > 1 µM.
Next, `O=C(CCN1C(=O)C=CC1=O)N/N=C/c1cc(OCCc2ccccc2)ccc1B(O)O` [Compound 119]: ≤ 0.01 µM.
Next, `CC(=O)N/N=C/c1cc(OCCc2ccccc2)ccc1B(O)O` [Compound 120]: ≤ 0.01 µM.
